US20070099877A1, “N-aryl-thienopyrimidin-4-amines and analogs as activators of caspases and inducers of apoptosis and the use thereof” (Cytovia, Inc., priority 2005, published 2007)
Structures can show the parent of a compound that is named as a salt.

Test system: human breast cancer cell line T-47D
Assay: Caspase cascade activation (DEVD-R110 fluorogenic substrate) in T-47D cells
Assay type: cell-based
Details: Homo sapiens, T47D, 24 h, T47D cells, 24 h; read-out: Caspase activation Potency EC50 T47D (24 h)
Procedure: (§1) Human breast cancer cell line T-47D, human lung cancer cell line H1299, human hepatocellular carcinoma cell line SNU398, human colon carcinoma cell line HCT116 were grown according to media component mixtures designated by American Type Culture Collection+10% FCS (Invitrogen Corporation), in a 5% CO2-95% humidity incubator at 37° C. T-47D and H1299 cells were maintained at a cell density between 50 and 80% confluency at a cell density of 0.1 to 0.6×10^6 cells/mL. Cells were harvested at 600×g and resuspended at 0.65×10^6 cells/mL into appropriate media+10% FCS. An aliquot of 22.5 μL of cells was added to a well of a 384-well microtiter plate containing 2.5 μL of a 10% DMSO in RPMI-1640 media solution containing 0.16 to 100 μM of N-(2,5-dimethoxyphenyl)-2-methylthieno[3,2-d]pyrimidin-4-amine or other test compound (0.016 to 10 μM final). An aliquot of 22.5 μL of cells was added to a well of a 384-well microtiter plate containing 2.5 μL of a 10% DMSO in RPMI-1640 media solution without test compound as the control sample. The samples were mixed by agitation and then incubated at 37° C. for 24 h or 48 h in a 5% CO2-95% humidity incubator. After incubation, the samples were removed from the incubator and 25 μL of a solution containing 14 μM of N-(Ac-DEVD)-N′-ethoxycarbonyl-R110 (SEQ ID NO.:1) fluorogenic substrate (Cytovia, Inc.; WO99/18856), 20% sucrose (Sigma), 20 mM DTT (Sigma), 200 mM NaCl (Sigma), 40 mM Na PIPES buffer pH 7.2 (Sigma), and 500 μg/mL lysolecithin (Calbiochem) was added. The samples were mixed by agitation and incubated at room temperature. Using a fluorescent plate reader (Model SPECTRAfluor Plus, Tecan), an initial reading (T=0) was made approximately 1-2 min after addition of the substrate solution, employing excitation at 485 nm and emission at 530 nm, to determine the background fluorescence of the control sample. After the 3 h incubation, the samples were read for fluorescence as above (T=3 h).
(§2) The Relative Fluorescence Unit values (RFU) were used to calculate the sample readings as follows: RFU(T=3h)−Control RFU(T=O)=Net RFU(T=3h)
(§3) The activity of caspase cascade activation was determined by the ratio of the net RFU value for N-(2,5-dimethoxyphenyl)-2-methylthieno[3,2-d]pyrimidin-4-amine or other test compound to that of control samples. The EC50 (nM) was determined by a sigmoidal dose-response calculation (Prism 3.0, GraphPad Software Inc.).

| EC50 [µM] | SMILES |
| --- | --- |
| 0.114 | COc1ccc(OC)c(Nc2ncnc3c(C)csc23)c1 [Example 22, N-(2,5-Dimethoxyphenyl)-7-methylthieno[3,2-d]pyrimidin-4-amine] |
| > 10 | COc1ccc(Nc2ncnc3ccsc23)cc1 [Example 19, N-(4-Methoxyphenyl)thieno[3,2-d]pyrimidin-4-amine hydrochloride] |
| > 10 | COc1cccc(Nc2ncnc3ccsc23)c1OC [Example 9, N-(2,3-Dimethoxyphenyl)thieno[3,2-d]pyrimidin-4-amine hydrochloride] |

Same assay, conditions: Homo sapiens, T47D, 48 h, T-47D cells, 48 h; read-out: Caspase activation Potency EC50 T-47D (48 h)

| EC50 [µM] | SMILES |
| --- | --- |
| 0.233 | COc1ccc(OC)c(Nc2ncnc3c(C)csc23)c1 [Example 22, N-(2,5-Dimethoxyphenyl)-7-methylthieno[3,2-d]pyrimidin-4-amine] |
| > 10 | COc1ccc(Nc2ncnc3ccsc23)cc1 [Example 19, N-(4-Methoxyphenyl)thieno[3,2-d]pyrimidin-4-amine hydrochloride] |
| > 10 | COc1cccc(Nc2ncnc3ccsc23)c1OC [Example 9, N-(2,3-Dimethoxyphenyl)thieno[3,2-d]pyrimidin-4-amine hydrochloride] |

Test system: human lung cancer cell line H1299
Assay: Caspase cascade activation in H1299 cells
Assay type: cell-based
Details: NCI-H1299, 24 h, read-out: Caspase activation Potency EC50 H1299 (24 h)
Procedure: as §1, §2, §3

| EC50 [µM] | SMILES |
| --- | --- |
| 5.03 | COc1ccc(OC)c(Nc2ncnc3c(C)csc23)c1 [Example 22, N-(2,5-Dimethoxyphenyl)-7-methylthieno[3,2-d]pyrimidin-4-amine] |
| > 10 | COc1ccc(Nc2ncnc3ccsc23)cc1 [Example 19, N-(4-Methoxyphenyl)thieno[3,2-d]pyrimidin-4-amine hydrochloride] |
| > 10 | COc1cccc(Nc2ncnc3ccsc23)c1OC [Example 9, N-(2,3-Dimethoxyphenyl)thieno[3,2-d]pyrimidin-4-amine hydrochloride] |

Test system: human hepatocellular carcinoma cell line SNU398
Assay: Caspase cascade activation in SNU398 cells
Assay type: cell-based
Details: Homo sapiens, SNU-398, 48 h, read-out: Caspase activation Potency EC50 SNU398 (48 h)
Procedure: as §1, §2, §3

| EC50 [µM] | SMILES |
| --- | --- |
| > 10 | COc1ccc(OC)c(Nc2ncnc3c(C)csc23)c1 [Example 22, N-(2,5-Dimethoxyphenyl)-7-methylthieno[3,2-d]pyrimidin-4-amine] |
| > 10 | COc1ccc(Nc2ncnc3ccsc23)cc1 [Example 19, N-(4-Methoxyphenyl)thieno[3,2-d]pyrimidin-4-amine hydrochloride] |
| > 10 | COc1cccc(Nc2ncnc3ccsc23)c1OC [Example 9, N-(2,3-Dimethoxyphenyl)thieno[3,2-d]pyrimidin-4-amine hydrochloride] |

Test system: human colon carcinoma cell line HCT116
Assay: Caspase cascade activation in HCT116 cells
Assay type: cell-based
Details: Homo sapiens, HCT-116, 48 h, read-out: Caspase activation Potency EC50 HCT116 (48 h)
Procedure: as §1, §2, §3

| EC50 [µM] | SMILES |
| --- | --- |
| 0.341 | COc1ccc(OC)c(Nc2ncnc3c(C)csc23)c1 [Example 22, N-(2,5-Dimethoxyphenyl)-7-methylthieno[3,2-d]pyrimidin-4-amine] |
| > 10 | COc1ccc(Nc2ncnc3ccsc23)cc1 [Example 19, N-(4-Methoxyphenyl)thieno[3,2-d]pyrimidin-4-amine hydrochloride] |
| > 10 | COc1cccc(Nc2ncnc3ccsc23)c1OC [Example 9, N-(2,3-Dimethoxyphenyl)thieno[3,2-d]pyrimidin-4-amine hydrochloride] |
